ChEMBL document CHEMBL5537152, “Targeted Degradation of PCSK9 In Vivo by Autophagy-Tethering Compounds” (J Med Chem, 2024)

Assays:
Mus musculus [1] = experiment: Antiatherosclerotic activity in hypercholesterolemic ApoE-/- mouse model assessed as decrease in plasma LDL-C level at 15 mg/kg/day, ip measured after 21 days relative to control; type: functional; settings: time 21 day
Mus musculus [2] = experiment: Synergistic antiatherosclerotic activity in hypercholesterolemic ApoE-/- mouse model assessed as decrease in plasma LDL-C level at 15 mg/kg, ip administered daily for 3 weeks; type: functional; design: scale not given: the % may be the effect or the level left

CCC(C)(C)C(=O)O[C@H]1C[C@@H](C)C=C2C=C[C@H](C)[C@H](CC[C@@H]3C[C@@H](O)CC(=O)O3)[C@H]21 [SIMVASTATIN]
Efficacy (Mus musculus [1]): 23.59% | Activity (Mus musculus [2]): 23.59%
